Measurements as given in patent US7566787B2, “Small molecule cyclin D1 ablative agents” (The Ohio State University, priority 2004, dated 2009).
Read-outs that look alike come from different tables or passages of the source.

Legend:
MCF-7 cells = test: MTT cell viability assay; assay type: cell-based; conditions: Homo sapiens
Experimental: Cell viability analysis. The effect of individual test agents on cell viability was assessed by using the MTT [3-(4,5-dimethylthiazol-2-yl)-2,5-diphenyl-2H-tetrazolium bromide] assay in six replicates. Cells were seeded and incubated in 96-well, flat-bottomed plates in DMEM-F12 media with 10% FBS for 24 h, and were exposed to various concentrations of test agents dissolved in DMSO (final DMSO concentration, 0.1%) in 5% FBS-supplemented DMEM-F12 medium. Controls received DMSO vehicle at a concentration equal to that of drug-treated cells. The medium was removed, replaced by 200 μl of 0.5 mg/ml of MTT in 10% FBS-containing RPMI-1640 medium, and cells were incubated in the CO2 incubator at 37° C. for 2 h. Supernatants were removed from the wells, and the reduced MTT dye was solubilized in 200 μl/well DMSO. Absorbance at 570 nm was determined on a plate reader.

PPARγ = molecular target: T1, PPARγ (Homo sapiens, UniProt P37231); test: Analysis of PPARγ activation (PPARγ transcription factor ELISA, MCF-7 nuclear extracts); assay type: cell-based; conditions: 10 μM, 48 h, MCF-7 cells
T1 construct: endogenous in cells; host or cells: MCF-7 (nuclear extracts)
T1 sequence (P37231 1-505): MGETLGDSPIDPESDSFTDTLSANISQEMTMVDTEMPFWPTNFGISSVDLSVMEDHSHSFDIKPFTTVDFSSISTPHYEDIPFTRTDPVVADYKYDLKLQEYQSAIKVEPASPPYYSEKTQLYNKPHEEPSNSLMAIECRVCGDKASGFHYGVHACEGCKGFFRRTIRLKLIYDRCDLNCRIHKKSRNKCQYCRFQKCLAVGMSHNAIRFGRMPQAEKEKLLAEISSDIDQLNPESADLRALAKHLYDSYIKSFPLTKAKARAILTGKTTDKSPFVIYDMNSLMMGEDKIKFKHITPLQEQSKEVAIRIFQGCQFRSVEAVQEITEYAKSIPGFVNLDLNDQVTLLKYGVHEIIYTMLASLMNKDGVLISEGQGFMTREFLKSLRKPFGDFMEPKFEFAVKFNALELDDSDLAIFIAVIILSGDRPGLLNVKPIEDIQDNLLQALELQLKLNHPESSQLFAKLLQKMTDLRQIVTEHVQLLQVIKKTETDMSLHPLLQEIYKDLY
Experimental: Analysis of PPARγ activation. The analysis was carried out by using a PPARγ transcription factor ELISA kit (Active Motif, Carlsbad, Calif.), in which an oligonucleotide containing the peroxisome proliferator response element (PPRE) was immobilized onto a 96-well plate. PPARs contained in nuclear extracts bind specifically to this oligonucleotide and are detected through an antibody directed against PPARγ. In brief, MCF-7 cells were cultured in RPMI 1640 medium supplemented with 10% FBS, and treated with DMSO vehicle or individual test agents, 10 μM each, for 48 h. Cells were collected, and nuclear extracts were prepared with a Nuclear Extract kit (Active Motif, Carlsbad, Calif.). Nuclear extracts of the same protein concentration from individual treatments were subject to the PPARγ transcription factor ELISA according to the manufacturer's instruction.

cyclin D1 = test: Western blot analysis of cyclin D1 expression in MCF-7 cells; assay type: cell-based, human; conditions: for concentration at which cyclin D1 levels are reduced: FIG. 8B; for minimum concentration required for the complete ablation of cyclin D1: 24 h, 5% FBS
Experimental: (§1) Western Blot Analysis. MCF-7 or MDA-MB-231 cells were seeded in 10% FBS-containing DMEM-F-12 for 24 h and treated with various agents as indicated. After individual treatments for 24 h, both the incubation medium and adherent cells in T-25 or T-75 flasks were scraped and collected by centrifugation at 2,000×g for 10 min. The pellets were recovered, placed on ice, and triturated with 20 to 50 μl of a chilled lysis buffer (M-PER® Mammalian Protein Extraction Reagent, Pierce, Rockford, Ill.) to which was added 1% protease inhibitor cocktail (set III, EMD Biosciences, Inc. San Diego, Calif.). After a 30 min-incubation on ice, the mixture was centrifuge at 16,100×g for 3 min. Two μl of the suspension was taken for protein analysis using the Bradford assay kit (Bio-Rad, Hercules, Calif.). To the remaining solution was added the same volume of 2× SDS-PAGE sample loading buffer (100 mM Tris-HCl, pH 6.8, 4% SDS, 5% β-mercaptoethanol 20% glycerol, and 0.1% bromophenol blue). The mixture was boiled for 10 min. Equal amounts of proteins were loaded onto 10% SDS-PAGE gels. After electrophoresis, protein bands were transferred to nitrocellulose membranes in a semi-dry transfer cell. The transblotted membrane was blocking with TBST [Tris-buffered saline (TBS) containing 0.1% Tween 20] containing 5% nonfat milk for 90 min, and the membrane was incubated with the appropriate primary antibody in TBST-5% nonfat milk at 4° C. overnight. After washing three times with TBST for a total of 45 min, the transblotted membrane was incubated with goat anti-rabbit or anti-mouse IgG-horseradish peroxidase conjugates (diluted 1:1000) for 1 h at room temperature and washed four times with TBST for a total of 1 h. The immunoblots were visualized by enhanced chemiluminescence.

ubiquitinated cyclin D1 = test: Coimmunoprecipitation/Western blot of cyclin D1 ubiquitination in MCF-7 cells; assay type: cell-based, human; conditions: 30 μM TG or 20 μM Δ2-TG, 20 h
Experimental: Coimmunoprecipitation/Western Blot. MCF-7 cells were cultured in 10% FBS-containing DMEM-F-12 in 75-mm plates for 24 h. Cell were treated with DMSO vehicle, 30 μM TG, or 20 μM Δ2-TG in 5% FBS-containing DMEM-F12 medium for another 20 hours. Cells were rinsed with PBS at room temperature, scraped off the flask, transferred into centrifuge tubes, and centrifuged at 2,000×g for 10 min to pellet the cells. […] These cell lysates were treated with 100 μl of protein A-agarose bead slurry, followed by brief centrifugation, to remove nonspecific binding proteins. Equal amounts of proteins from these lysates, as determined by the Bradford assay, were mixed with anti-cyclin D1 in an orbital shaker at 23° C. for 2 h, followed by 100 μl of protein A-agarose bead slurry at 4° C. for 12 h. The immunocomplex was collected by brief centrifugation, washed 4 times with 800 μl of ice-cold RIPA buffer, and suspended in 50 μl of the aforementioned 2× SDS sample loading buffer. The suspension was boiled for 10 min, cooled, and briefly centrifuged to remove the beads. Western blot analysis was performed with anti-cyclin D1 or anti-ubiquitin as described above.

cyclin D1 gene mRNA = test: RT-PCR analysis of mRNA transcripts of cyclin D1 gene in MCF-7 cells; assay type: cell-based, human; conditions: 24 h exposure, 40 μM TG, 30 μM Δ2-TG
Experimental: Reverse transcriptase (RT-) PCR analysis of mRNA transcripts of cyclin D1 gene. MCF7 cells were subject to total RNA isolation by using RNeasy mini kit (Qiagen, Valencia, Calif.). RNA concentrations and quality were assessed spectrophotometrically by measuring absorption at 260 nm. Aliquots of 20 μg of total RNA from each sample was reverse transcribed to cDNA using Omniscript RT Kit (Qiagen) according to manufacturer's instructions. The primers used were as follows: cyclin D1, forward, 5′-[…]-3′, reverse, 5′-[…]-3′; β-actin, forward, 5′-[…]-3′, reverse, 5′-[…]-3′. The reaction conditions were as follows: for cyclin D1 (a) initial denaturation at 95° C. for 5 min; (b) 34 cycles of amplification (95° C. for 1 min, 65° C. for 1 min 45 s, and 72° C. for 1 min); and (c) a final extension step of 10 min at 72° C.; for β-actin (a) initial denaturation at 95° C. for 3 min; (b) 40 cycles of amplification (95° C. for 30 s, 58° C. for 20 s, and 72° C. for 45 s); and (c) a final extension step of 10 min at 72° C.

GSK-3β = test: Western blot of GSK-3β phosphorylation in MCF-7 cells; assay type: cell-based, human; conditions: different doses
Experimental: as §1, with “The transblotted membrane was blocking with TBST [Tris-buffered saline (TBS) containing 0.1% Tween 20] containing 5% nonfat milk for 90 min, and the membrane was incubated with the appropriate primary antibody in TBST-5% nonfat milk at 4° C. overnight. After washing three times with TBST for a total of 45 min, the transblotted membrane was incubated with goat anti-rabbit or anti-mouse IgG-horseradish peroxidase conjugates (diluted 1:1000) for 1 h at room temperature and washed four times with TBST for a total of 1 h. The immunoblots were visualized by enhanced chemiluminescence.” left out

[1] = test system: cyclins D2, D3, A, B, and E, and cyclin-dependent kinases (CDKs) 2 and 4; test: Western blot of other cyclins and CDKs in MCF-7 cells; assay type: cell-based, human; conditions: different doses, 24 h
Experimental: as §1, with “The transblotted membrane was blocking with TBST [Tris-buffered saline (TBS) containing 0.1% Tween 20] containing 5% nonfat milk for 90 min, and the membrane was incubated with the appropriate primary antibody in TBST-5% nonfat milk at 4° C. overnight. After washing three times with TBST for a total of 45 min, the transblotted membrane was incubated with goat anti-rabbit or anti-mouse IgG-horseradish peroxidase conjugates (diluted 1:1000) for 1 h at room temperature and washed four times with TBST for a total of 1 h. The immunoblots were visualized by enhanced chemiluminescence.” left out

ERα = test: Western blot analysis of ERα expression in MCF-7 cells; assay type: cell-based, human; conditions: 24 h
Experimental: as §1, with “The transblotted membrane was blocking with TBST [Tris-buffered saline (TBS) containing 0.1% Tween 20] containing 5% nonfat milk for 90 min, and the membrane was incubated with the appropriate primary antibody in TBST-5% nonfat milk at 4° C. overnight. After washing three times with TBST for a total of 45 min, the transblotted membrane was incubated with goat anti-rabbit or anti-mouse IgG-horseradish peroxidase conjugates (diluted 1:1000) for 1 h at room temperature and washed four times with TBST for a total of 1 h. The immunoblots were visualized by enhanced chemiluminescence.” left out

[2] = MCF7, 24 h, 5% FBS, MTT, FIG. 8D, read-out: IC50 in inhibiting MCF-7 cell proliferation
[3] = MCF7, cell viability data, read-out: IC50 for MTT

Compound | IC50 (MCF-7 cells; [2]) [µM] | IC50 (MCF-7 cells; [3]) [µM] | PPARγ activation (PPARγ) | potency in ablating cyclin D1 relative to Δ2-TG (cyclin D1) | concentration at which cyclin D1 levels are reduced (cyclin D1) [µM] | IC50 (cyclin D1; western blot data, read-out: IC50 for WB) [µM] | extent of ubiquitination of cyclin D1 (ubiquitinated cyclin D1) | mRNA level of cyclin D1 (cyclin D1 gene mRNA) | GSK-3β phosphorylation level (GSK-3β) | expression level of cyclin D2 and CDK4 [1] | expression level of the other cyclins and CDKs (D3, A, B, E, CDK2) [1] | effect on ERα expression (ERα) | time of complete ablation of cyclin D1 (cyclin D1; 40 μM TG, 30 μM Δ2-TG) [h] | minimum concentration required for the complete ablation of cyclin D1 (cyclin D1) [µM]
C=CCOc1c(C)c(C)c2c(c1C)CCC(C)(COc1ccc(/C=C3\SC(=O)NC3=O)cc1)O2 (stereo not shown) [TG-6, 5-[4-(6-allyoxy-2,5,7,8-tetramethyl-chroman-2-yl-methoxy)-benzylidene]-2,4-thiazolidinedione] | 8 | 9 | devoid of activity | an-order-of-magnitude higher | ≥ 2.5 | 3 | – | – | – | – | – | – | – | –
Cc1c(C)c2c(c(C)c1O)CCC(C)(COc1ccc(/C=C3\SC(=O)NC3=O)cc1)O2 (stereo not shown) [Δ2-TG, 5-[4-(6-hydroxy-2,5,7,8-tetramethyl-chroman-2-yl-methoxy)-benzylidene]-2,4-thiazolidinedione] | 55 | 57 | inactive | – | ≥ 20 | – | increased | remained unaltered | remained unaltered | slight decrease | no appreciable effect | able to reduce | 24 | 30
CC1(COc2ccc(/C=C3\SC(=O)NC3=O)cc2)CCCCC1 [Δ2-CG, 5-[4-(1-methyl-cyclohexylmethoxy)-benzylidene]-thiazolidine-2,4-dione] | – | 70 | inactive | – | – | – | – | – | – | – | – | able to reduce | – | 30
